Test results from patent publication US4146622A, “Aziridinyl quinone anti-transplanted tumor agents” (priority 1977, dated 1979).
Converted amounts (≈) assume the structure as drawn. “And” between values parts separate entries of the source, which are not always exact repeats. Equal values may be shown once. “Also recorded” adds a separate entry of the source.

Experiments:
[1] = test system: ependymoblastoma; assay: Intracerebral (IC) ependymoblastoma (EM) brain tumor test; format: in vivo, murine
[2] = test system: P388 lymphocytic leukemia; assay: Intraperitoneal (IP) lymphocytic leukemia P388 transplanted mouse tumor test; format: in vivo, murine; conditions: for antitumor activity: IP P388; for cures: P388, 30 day survivors, QD1-9; for OD (optimum dose) / ILS (percentage increase in life span) / animals alive per 6 test animals on day of termination: Table IX; for OD (optimum dose): IP P388, QD1-9; for ILS (percentage increase in life span) / animals alive per 6 test animals on day of termination: IP P388, QD1-9, at OD; for animals alive per 6 test animals on day of termination / survivors (number in parentheses) P388: day 30; for survivors (number in parentheses) P388: Table XI, per 6 test animals
[3] = test system: IP ascites tumor systems (leukemia L1210 and P388); assay: IP ascites tumor systems (leukemia L1210 and P388); format: in vivo, murine
From the text: The criterion for minimum activity, %ILS, is defined here as follows: Intraperitoneal and intracerebral leukemia L1210 and intraperitoneal leukemia P388, 25%; intraperitoneal B16 melanoma and intracerebral ependymoblastoma, 40%. Consistent with NCI antitumor test protocols, intraperitoneal (IP) administration of the drug was employed with all five tumor systems investigated. Tumor implantation was IP in the systems designated IP leukemia L1210 and P388 as well as B16 melanoma. Intracerebral (IC) tumor implantation was utilized in the IC L1210 and ependymoblastoma tumor systems.

[4] = test system: B16 melanocarcinoma; assay: Intraperitoneal B16 melanocarcinoma transplanted mouse tumor test; format: in vivo, murine; conditions: for antitumor activity: B16 melanoma; for OD (optimum dose) / ILS (percentage increase in life span): Table IX; for OD (optimum dose): B16, QD1-9; for ILS (percentage increase in life span): B16, QD1-9, at OD; for ILS (%) B16: Table XI, outstanding activity
From the text: ^b Ip tumor implantation, ip QD1-9 treatment schedule.
The L1210, P388 and B16 test systems described in Table II utilize intraperitoneal (IP) tumor implantation and IP drug treatment while the Lewis lung system employs subcutaneous tumor implantation and IP treatment.
Aqueous saline solution (0.9%) was used as the drug vehicle. Normally, five doses were employed per experiment with the top dose chosen to produce toxicity. The lower doses were 50% of each preceeding dose.
Consistent with NCI antitumor test protocols, intraperitoneal (IP) administration of the drug was employed with all five tumor systems investigated. Tumor implantation was IP in the systems designated IP leukemia L1210 and P388 as well as B16 melanoma.

[5] = test system: lymphoid leukemia L1210; assay: Intraperitoneal (IP) lymphoid leukemia L1210 transplanted mouse tumor test; format: in vivo, murine; conditions: for maximum ILS: IP L1210; for antitumor activity: IP L1210, tetraaminobenzoquinone series (Table VIII); for OD (optimum dose) / ILS (percentage increase in life span) / animals alive per 6 test animals on day of termination: Table VIII; for animals alive per 6 test animals on day of termination / survivors (number in parentheses) IP L1210: day 30; for ILS (%) IP L1210 / survivors (number in parentheses) IP L1210: Table XI; for ILS (%) IP L1210: outstanding activity; for survivors (number in parentheses) IP L1210: per 6 test animals; for cures: survivors on day 30, L1210
From the text: ^(a) Day 1-9 treatment schedule (9 injections)
^(b) Day 1,5,9 treatment schedule (3 injections)
^(c) Day 1 only treatment schedule (1 injection)
^(f) Percentage increase in life span of treated animals [(treated
survival .div. control survival) × 100%] - 100%

[6] = Octanol/H2O partition coefficient (log P); format: physicochemical; conditions: Table VII, octanol/H2O
From the text: ^(b) Octanol/H2 O values determined by C. Hansch and M. Yamakawa

[7] = test system: lymphoid leukemia L1210; assay: Intracerebral (IC) lymphoid leukemia L1210 test; format: in vivo, murine; conditions: for antitumor activity: IC L1210; for OD (optimum dose) / ILS (percentage increase in life span): Table X; for OD (optimum dose): IC L1210, QD1-9; for ILS (percentage increase in life span): IC L1210, QD1-9, at OD
From the text: ^b Ic tumor implantation, ip QD1-9 treatment schedule.
The L1210, P388 and B16 test systems described in Table II utilize intraperitoneal (IP) tumor implantation and IP drug treatment while the Lewis lung system employs subcutaneous tumor implantation and IP treatment. All three CNS tumor models (Table III) use intracerebral (IC) tumor implantation and IP treatment.
Consistent with NCI antitumor test protocols, intraperitoneal (IP) administration of the drug was employed with all five tumor systems investigated. Tumor implantation was IP in the systems designated IP leukemia L1210 and P388 as well as B16 melanoma. Intracerebral (IC) tumor implantation was utilized in the IC L1210 and ependymoblastoma tumor systems.

[8] = Room temperature water solubility; format: physicochemical; conditions: water; Table VII; room temperature, approximate; read-out: Approx. H2O Sol.
Summary of the method: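 Water added incrementally by pipet, with shaking, to a weighed amount of compound at room temperature until dissolved; values are approximate.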

[9] = Table X, IC ependymoblastoma, QD1-5, at OD
[10] = IP L1210, Day 1 only (1 injection)
[11] = IP L1210, Q4D(1,5,9) (3 injections)

SMILES	ILS (percentage increase in life span) [1, 9]	antitumor activity [2]	cures [2]	OD (optimum dose) [2]	ILS (percentage increase in life span) [2]	animals alive per 6 test animals on day of termination [2]	survivors (number in parentheses) P388 [2]	antitumor activity [3]	antitumor activity [4]	OD (optimum dose) [4]	ILS (percentage increase in life span) [4]	ILS (%) B16 [4]	maximum ILS [5]	antitumor activity [5]	OD (optimum dose) [5, 10]	animals alive per 6 test animals on day of termination ([5]; IP L1210, Day 1 only, at OD)	OD (optimum dose) [5, 11]	OD (optimum dose) ([5]; IP L1210, QD1-9 (9 injections))	ILS (%) IP L1210 [5]	survivors (number in parentheses) IP L1210 [5]	other results
O=C1C(NCCO)=C(N2CC2)C(=O)C(NCCO)=C1N1CC1 [Compound 38]	83% and 70%	very active	multiple cures	0.4 mg/kg/injection	175% and 160%	3 and 2	3	most active; also recorded: superior	active	0.4 mg/kg/injection	61% and 51%	61%	> 200%	Excellent activity	1.5 mg/kg/injection	5 and 3	0.7 mg/kg/injection	0.7 mg/kg/injection	205%	2	OD (optimum dose) ([1]; Table X, IC ependymoblastoma, QD1-5): 1.5 mg/kg/injection; ILS (percentage increase in life span) ([5]; IP L1210, Day 1 only, at OD): 175% and 119%; ILS (percentage increase in life span) ([5]; IP L1210, Q4D(1,5,9), at OD): 131% and 70%; ILS (percentage increase in life span) ([5]; IP L1210, QD1-9, at OD): 205% and 134%; animals alive per 6 test animals on day of termination ([5]; IP L1210, QD1-9, at OD): 2 and 3; cures [5]: produced cures; cures ([5]; listed as hydroxyethylamino): Multiple cures; logP ([6]; octanol/water): -1.48; antitumor activity [7]: marginal; OD (optimum dose) [7]: 0.75 mg/kg/injection; ILS (percentage increase in life span) [7]: 57% and 48%; ILS (%) IC L1210 ([7]; Table XI, outstanding activity): 57%; solubility [8]: 2 mg/mL (≈ 6.49 mM)
O=C1C(NCC(O)CO)=C(N2CC2)C(=O)C(NCC(O)CO)=C1N1CC1 (stereo not drawn) [Compound 39]	99% and 53%	very active	multiple cures	4.0 mg/kg/injection	143% and 141%	6 and 4	6	curative; also recorded: probably the most active compound	active	4.0 mg/kg/injection and 6.0 mg/kg/injection	50% and 42%	50%	> 200%	Excellent activity	4.0 mg/kg/injection and 2.0 mg/kg/injection	4	4.0 mg/kg/injection and 8.0 mg/kg/injection	4.0 mg/kg/injection and 2.0 mg/kg/injection	206%	5	ILS values (spread) ([1]; EM, repeat tests): 53-186%; antitumor activity ([1]; IC ependymoblastoma (EM)): moderate to good EM activity; animals alive per 6 test animals on day of termination ([1]; Table X, IC ependymoblastoma, QD1-5, at OD, day 60): 1; cures [5]: produced cures; cures ([5]; listed as dihydroxypropylamino): Multiple cures; log P [6]: -1.97; antitumor activity [7]: marginal; OD (optimum dose) [7]: 4.0 mg/kg/injection; ILS (percentage increase in life span) [7]: 41% and 43%; solubility [8]: 30 mg/mL (≈ 81.4 mM)
